Laboratory results as given in US20070004680A1, “Compositions and methods for modulating gated ion channels” (PainCeptor Pharma Corporation, priority 2004, published 2007).
pIC50: −log10 of the molar value.

Key:
ASIC1a = molecular target: T1, ASIC1a (Homo sapiens, UniProt P78348); experiment: FLIPR calcium assay (MES-induced calcium response), ASIC1a expressing HEK293 cells; type: cell-based; conditions: HEK cells
T1 construct: host or cells: HEK293
T1 sequence (P78348 1-528): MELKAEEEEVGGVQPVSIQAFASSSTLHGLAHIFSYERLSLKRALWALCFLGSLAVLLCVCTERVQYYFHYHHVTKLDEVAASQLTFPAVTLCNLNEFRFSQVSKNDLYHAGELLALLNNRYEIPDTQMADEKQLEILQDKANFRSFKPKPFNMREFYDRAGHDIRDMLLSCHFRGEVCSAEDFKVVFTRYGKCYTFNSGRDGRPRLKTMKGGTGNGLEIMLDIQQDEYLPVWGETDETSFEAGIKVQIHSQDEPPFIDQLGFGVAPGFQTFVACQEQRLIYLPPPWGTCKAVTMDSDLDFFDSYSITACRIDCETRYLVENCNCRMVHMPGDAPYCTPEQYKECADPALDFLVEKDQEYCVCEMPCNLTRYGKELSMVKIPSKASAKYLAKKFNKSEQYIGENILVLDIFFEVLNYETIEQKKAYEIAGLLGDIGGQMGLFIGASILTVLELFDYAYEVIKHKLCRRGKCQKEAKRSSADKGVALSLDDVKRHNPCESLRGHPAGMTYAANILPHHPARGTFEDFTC
Description: ASIC1a expressing HEK293 cells are grown in culture medium (DMEM with 10% FBS), in polystyrene culture flasks ([…]) at 37° C. in a humidified atmosphere of 5% CO2. Confluency of cells should be 80-90% on day of plating. Cells are rinsed with 10 ml of PBS and cells are re-suspended by addition of culture medium and trituration with a 25 ml pipette.
The cells are seeded at a density of approximately 1×10^6 cells/ml (100 μl/well) in black-walled, clear bottom, 96-well plates pre-treated with 10 mg/l poly-D-lysin (75 μl/well for ≧30 min). Plated cells were allowed to proliferate for 24 h before loading with dye.
Fluo-4/AM (1 mg, Molecular Probes) is added 912 μl DMSO. The Fluo-4/AM stock solution (1 mM) is diluted with culture medium to a final concentration of 2 μM.
The culture medium is aspirated from the wells, and 50 μl of the Fluo-4/AM loading solution is added to each well. The cells are incubated at 37° C. for 30 min.
After the loading period, the loading solution is aspirated and the cells are washed twice with 100 μl modified FLIPR medium (145 mM NaCl, 5 mM KCl, 5 mM CaCl2, 1 mM MgCl2, 10 mM HEPES, pH 7.4) to remove extracellular dye. Following the second wash, 100 μl modified FLIPR medium is added to each well and the fluorescence is measured in FLIPR.
Temperature: Room temperature (20-22° C.)
First addition: 50 μl test solution at a rate of 30 μl/sec and a starting height of […]
Second addition: 50 μl MES solution (20 mM, 5 mM final concentration) at a rate of 35 μl/sec and a starting height of 150 μl.
Reading intervals: pre-incubation—10 sec×7 and 3 sec×3 antagonist phase—3 sec×17 and 10 sec×12
Addition plates (compound test plate and MES plate) are placed on the right and left positions in the FLIPR tray, respectively. Cell plates are placed in the middle position and the ASIC1a program is effectuated. FLIPR will then take the appropriate measurements in accordance with the interval settings above. Fluorescence obtained after stimulation is corrected for the mean basal fluorescence (in modified FLIPR medium). […]

Male Sprague-Dawley rats = experiment: Formalin test (flinching behaviour); type: in vivo, rat; conditions: 10 mg/kg i.v. 10 min prior to formalin in the hind limb; compared with vehicle; n=8
Description: Male Sprague-Dawley rats (body weight, 180-300 g) are housed together in groups of four animals under standard conditions with unrestricted access to food and water. Rats are housed in the room in which the testing procedure is performed to minimize any stress response to novel environmental cues. All experiments are conducted according to the ethical guidelines for investigations of experimental pain in conscious animals (Zimmerman, 1983).
Separate groups of rats are used for the different experiments such that each animal is used on one occasion only. All experiments for a given compound are performed using age matched animals in an attempt to avoid variability between experiments. Prior to initiation of the formalin test, 4 rats are habituated in separate testing cages for 15-20 min. […] On the basis of the response pattern, two distinct phases of nociceptive behavior are observed, characterized by flinching of the affected paw and scored (Blackburn-Munro et al., Eur J Pharmacol. 2002 Jun. 12;445(3):231-8). […]
All data is analysed using Sigmastat 2.03 statistical software (Jandel Scientific GmbH, Germany) and expressed as mean±S.E.M. Two Way Repeated Measures Analysis of Variance (Two Way RM ANOVA) is used to analyse formalin test data and where applicable, this is followed by post-hoc analysis using Bonferroni's t-test to allow comparisons between groups. […]

C=CC1CN2CCC1CC2[C@@H](OC(=O)CCC1CCCC1)c1ccnc2ccccc12 (stereo partly drawn) [Compound A]
inhibition at 1 µM (ASIC1a; HEK293, at 1 μM, FLIPR): 30 to 45% | pIC50 (ASIC1a; MES-induced calcium response, peak values): 5.40 to 6.00 | flinching behaviour in Formalin test (Male Sprague-Dawley rats): attenuated flinching behaviour
